EP4740948A1 (Dong Wha Pharm. Co., Ltd., priority 2023, dated 2025)

What was measured:
Assay type in all cases: cell-based
G401 cells = experiment: Cancer cell proliferation inhibition (Cell Counting Kit-8), rhabdoid tumor cell line; settings: 1000 nM, cultured seven to 11 days; 1 µM
Source text: (§1) Among solid cancer cells, in G401 cells in which expression of SMARCB1, which is a member of switch/sucrosenon-fermenting (SWI/SNF), is defective as a cell line of a rhabdoid tumor in which a therapeutic effect may be expected through dual inhibition of EZH1/2, and MKN-45 cells in which expression of ARID1A, which is a member of SWI/SNF, is defective as a gastric cancer cell line, a proliferation inhibitory ability of the 1,3-benzodioxole derivative compounds represented by chemical formula I of the present invention was evaluated.
(§2) Each cell line (G401 cell, MKN-45 cell, Lovo cell, SW-13 cell, MIA-PaCa-2, NCI-H1299) of Table 2 below was cultured using RPMI1640, McCoy's 5a, L-15 or DMEM containing 10% fetal bovine serum, and the cells were seeded into wells of a 96-well culture dish at 100 to 1,000 cells each, and a test substance 1000 nM was cultured for seven to 11 days after drug treatment. After the culture, the cells were measured according to a manufacturer's instructions using Cell Counting Kit-8, and a cell proliferation inhibitory effect (% inhibition rate) of the test substance was obtained.
(§3) The cell proliferation inhibitory effect (% inhibition rate) of the test substance was calculated using a following equation. % inhibition rate = {1−(testgroup/controlgroup)} X 100 [formula]

SW-13 cells = experiment: Cancer cell proliferation inhibition (Cell Counting Kit-8), adrenal cancer cell line; settings: 1000 nM, cultured seven to 11 days
Protocol: (§4) In addition, as one example of solid cancer in which an overexpression of EZH2 and a consequent disease association therebetween is reported, a proliferation inhibitory activity of the 1,3-benzodioxole derivative compounds represented by chemical formula I of the present invention was evaluated in Lovo cells as a colorectal cancer cell line, SW-13 cells as an adrenal cancer cell line, MIA-PaCa-2 cells as a pancreatic cancer cell line, and NCI-H1299 cells as a lung cancer cell line.
as §2, §3

Lovo cells = experiment: Cancer cell proliferation inhibition (Cell Counting Kit-8), colorectal cancer cell line; settings: 1000 nM, cultured seven to 11 days
Protocol: as §4, §2, §3

MIA-PaCa-2 cells = experiment: Cancer cell proliferation inhibition (Cell Counting Kit-8), pancreatic cancer cell line; settings: 1000 nM, cultured seven to 11 days
Protocol: as §4, §2, §3

MKN-45 cells = experiment: Cancer cell proliferation inhibition (Cell Counting Kit-8), gastric cancer cell line; settings: 1000 nM, cultured seven to 11 days
Source text: as §1, §2, §3

NCI-H1299 cells = experiment: Cancer cell proliferation inhibition (Cell Counting Kit-8), lung cancer cell line; settings: 1000 nM, cultured seven to 11 days
Protocol: as §4, §2, §3

| Compound | % inhibition rate G401 (G401 cells) | % inhibition rate SW-13 (SW-13 cells) | % inhibition rate LoVo (Lovo cells; 1 µM) | % inhibition rate MIA-Paca2 (MIA-PaCa-2 cells) | % inhibition rate MKN -45 (MKN-45 cells; 1 µM) | % inhibition rate NCI-H129 9 (NCI-H1299 cells) | % inhibition rate SW-13 (SW-13 cells; 1 µM) | % inhibition rate LoVo (Lovo cells) | % inhibition rate MKN -45 (MKN-45 cells) | % inhibition rate NCI-H129 9 (NCI-H1299 cells; 1 µM) | % inhibition rate MIA-Paca2 (MIA-PaCa-2 cells; 1 µM) |
| --- | --- | --- | --- | --- | --- | --- | --- | --- | --- | --- | --- |
| CSc1cc(C)[nH]c(=O)c1CNC(=O)c1cc(-c2ccc(N3C[C@@H](C)O[C@@H](C)C3)nc2)c2c(c1C)OC(C)(C1CCN(CC(F)(F)F)CC1)O2 (single isomer, unassigned) [Compound 45] | + (+: ≤30%) | ++ (++: more than 30% and less than 70%) | ++ (++: more than 30% and less than 70%) | + (+: ≤30%) | + (+: ≤30%) | ++ (++: more than 30% and less than 70%) |  |  |  |  |  |
| CSc1cc(C)[nH]c(=O)c1CNC(=O)c1cc(-c2ccc(N3C[C@@H](C)O[C@@H](C)C3)nc2)c2c(c1C)OC(C)(C1CCN(CC(F)F)CC1)O2 (single isomer, unassigned) [Compound 48] | + (+: ≤30%) |  |  | + (+: ≤30%) | + (+: ≤30%) | ++ (++: more than 30% and less than 70%) | + (+: ≤30%) | +++ (+++: ≥70%) |  |  |  |
| CCN1CCC(C2(C)Oc3c(-c4ccc(N5C[C@@H](C)O[C@@H](C)C5)nc4)cc(C(=O)NCc4c(SC)cc(C)[nH]c4=O)c(C)c3O2)CC1 (single isomer, unassigned) [Compound 50] | + (+: ≤30%) |  | + (+: ≤30%) | + (+: ≤30%) |  | ++ (++: more than 30% and less than 70%) | + (+: ≤30%) |  | + (+: ≤30%) |  |  |
| CSc1cc(C)[nH]c(=O)c1CNC(=O)c1cc(-c2ccc(N3C[C@@H](C)O[C@@H](C)C3)nc2)c2c(c1C)OC(C)(C1CCN(C(C)C)CC1)O2 (single isomer, unassigned) [Compound 52] | + (+: ≤30%) |  | + (+: ≤30%) | + (+: ≤30%) |  |  | + (+: ≤30%) |  | + (+: ≤30%) | + (+: ≤30%) |  |
| CSc1cc(C)[nH]c(=O)c1CNC(=O)c1cc(-c2ccc(N3C[C@@H](C)O[C@@H](C)C3)nc2)c2c(c1C)OC(C)(C1CCN(C3CCCCC3)CC1)O2 (single isomer, unassigned) [Compound 54] | ++ (++: more than 30% and less than 70%) | ++ (++: more than 30% and less than 70%) | ++ (++: more than 30% and less than 70%) | + (+: ≤30%) |  |  |  |  | + (+: ≤30%) | + (+: ≤30%) |  |
| CSc1cc(C)[nH]c(=O)c1CNC(=O)c1cc(-c2ccc(N3C[C@@H](C)O[C@@H](C)C3)nc2)c2c(c1C)OC(C)(C1CCN(CCc3ccccc3)CC1)O2 (single isomer, unassigned) [Compound 56] | ++ (++: more than 30% and less than 70%) |  |  | + (+: ≤30%) | + (+: ≤30%) |  | + (+: ≤30%) | +++ (+++: ≥70%) |  | + (+: ≤30%) |  |
| CSc1cc(C)[nH]c(=O)c1CNC(=O)c1cc(-c2ccc(N3C[C@@H](C)O[C@@H](C)C3)nc2)c2c(c1C)OC(C)(C1CCN(CCCC(F)(F)F)CC1)O2 (single isomer, unassigned) [Compound 58] | + (+: ≤30%) |  | ++ (++: more than 30% and less than 70%) |  | + (+: ≤30%) |  | + (+: ≤30%) |  |  | + (+: ≤30%) | + (+: ≤30%) |
| CSc1cc(C)[nH]c(=O)c1CNC(=O)c1cc(-c2ccc(N3C[C@@H](C)O[C@@H](C)C3)nc2)c2c(c1C)OC(C)(C1CCN(C(=O)C(F)(F)F)CC1)O2 (single isomer, unassigned) [Compound 60] | + (+: ≤30%) |  |  | + (+: ≤30%) | + (+: ≤30%) |  | + (+: ≤30%) | +++ (+++: ≥70%) |  | + (+: ≤30%) |  |
| CSc1cc(C)[nH]c(=O)c1CNC(=O)c1cc(-c2ccc(N3CCOCC3)nc2)c2c(c1C)OC(C)(C1CCN(CC(F)(F)F)CC1)O2 (single isomer, unassigned) [Compound 63, 2,4-dimethyl-N-((6-methyl-4-(methylthio)-2-oxo-1,2-dihydropyridin-3-yl)methyl)-7-(6-morpholinopyridin-3-yl)-2-(1-(2,2,2-trifluoro)piperidin-4-yl)benzo[d][1,3]dioxole-5-carboxamide] | + (+: ≤30%) |  | ++ (++: more than 30% and less than 70%) | + (+: ≤30%) |  |  | + (+: ≤30%) |  | ++ (++: more than 30% and less than 70%) | + (+: ≤30%) |  |
| CSc1cc(C)[nH]c(=O)c1CNC(=O)c1cc(-c2ccc(N3CCOCC3)nc2)c2c(c1C)OC(C)(C1CCN(CC(F)F)CC1)O2 (single isomer, unassigned) [Compound 65, 2-(1-(2,2-difluoroethyl)piperidin-4-yl)-2,4-dimethyl-N-((6-methyl-4-(methylthio)-2-oxo-1,2-dihydropyridin-3-yl)methyl)-7-(6-morpholinopyridin-3-yl)benzo[d][1,3]dioxole-5-carboxamide] | + (+: ≤30%) |  | ++ (++: more than 30% and less than 70%) | + (+: ≤30%) |  | + (+: ≤30%) | + (+: ≤30%) |  | ++ (++: more than 30% and less than 70%) |  |  |
| CCN1CCC(C2(C)Oc3c(-c4ccc(N5CCOCC5)nc4)cc(C(=O)NCc4c(SC)cc(C)[nH]c4=O)c(C)c3O2)CC1 (single isomer, unassigned) [Compound 67, 2-(1-ethylpiperidin-4-yl)-2,4-dimethyl-N-((6-methyl-4-(methylthio)-2-oxo-1,2-dihydropyridin-3-yl)methyl)-7-(6-morpholinopyridin-3-yl)benzo[d][1,3]dioxole-5-carboxamide] | + (+: ≤30%) | + (+: ≤30%) | + (+: ≤30%) | + (+: ≤30%) | + (+: ≤30%) | + (+: ≤30%) |  |  |  |  |  |
| CSc1cc(C)[nH]c(=O)c1CNC(=O)c1cc(-c2cnc(N3CCOCC3)nc2)c2c(c1C)OC(C)(C1CCN(CC(F)(F)F)CC1)O2 (single isomer, unassigned) [Compound 70, 2,4-dimethyl-N-((6-methyl-4-(methylthio)-2-oxo-1,2-dihydropyridin-3-yl)methyl)-7-(2-morpholinopyrimidine-5-yl)-2-(1-(2,2,2-trifluoro)piperidin-4-yl)benzo[d][1,3]dioxole-5-carboxamide] | + (+: ≤30%) |  |  | + (+: ≤30%) |  | + (+: ≤30%) | + (+: ≤30%) | +++ (+++: ≥70%) | ++ (++: more than 30% and less than 70%) |  |  |
